According to US7824691B2 (priority 2005, dated 2010):
Ends that are not written are not given here.

Tests used:
S. aureus ATCC 25923 = experiment: Murine sepsis model 1, live S. aureus i.v. challenge (lethality, bacteremia); type: in vivo, BALB/c male mice; conditions: for Lethality (%) / Lethality (dead/total): monitored 72 h; for Quantitative Blood Culture (CFU/ml), mean ± S.D. / Qualitative Blood Culture (positive/total): blood 24 h after challenge
Procedure: Animals: BALB/c male mice weighing 23 to 30 g were used for all the experiments. All animals were housed in individual cages under constant temperature (22° C.) and humidity with a 12 hour light/dark cycle and had access to food and water ad libitum throughout the study. The study was approved by the animal research ethics committee of the I.N.R.C.A.-I.R.R.C.S., Polytechnic University of Marche, Ancona, Italy.
Preparation of the inoculum: S. aureus ATCC 25923 were grown overnight at 37° C. in brain-heart infusion broth. When bacteria were in the log phase of growth the suspension was centrifuged at 1000× g for 15 min, the supernatant was discarded, and the bacteria were resuspended in sterile saline to achieve a concentration of approximately 1×10^7 CFU/mL.
(§1) Implantation of inoculum: All animals were anesthetized by an intramuscular injection of ketamine (30 mg/kg of body weight). Mice were injected intravenously (i.v.) via the tail vein with 0.2 mL of the above mentioned bacterial suspensions: (i) 2.0×10^6 CFU of S. aureus ATCC 25923 (model 1), or (ii) 5.0×10^8 heat-killed cells (model 2) on day 0 and monitored for 72 hours.
(§2) Antibiotic therapy. […] Each group included 20 mice. The animals were returned to individual cages and monitored for the subsequent 72 hours. The endpoints of the study were lethality rates (model 1), quantitative blood cultures (bacteremia, model 1), and TNF-α or IL-6 plasma levels (model 2).
Evaluation of treatment: Blood samples for culture were obtained from the tail vein by aseptic percutaneous puncture 24 h after bacterial challenge. The animals that died before this time were not tested. To perform quantitative bacterial cultures, blood samples were serially diluted, a 0.1 mL volume of each dilution was spread on blood agar plates and cultured at 35° C. for 48 h, and colony forming units (CFU) were counted. The limit of detection was <10 CFU/mL.
Statistical analysis: Lethality rates between groups were compared by use of Fisher's exact test. Data from quantitative blood cultures were presented as means±standard deviations (SDs) of the mean; statistical comparisons between groups were made by analysis of variance. Post hoc comparisons were performed by Bonferroni's test. Plasma IL-6 and TNF-α mean values were compared between groups by analysis of variance. Significance was accepted when the p value was <0.05.

RAW264.7 cells [1] = experiment: LTA-induced TNF-α production by RAW264.7 cells (ELISA); type: cell-based, murine; conditions: 20 μg/mL inactive RIP peptide analogue; data not shown
Procedure: (§3) Cytokine production by RAW 264.7 cells: The murine macrophage cell line RAW264.7 was obtained from American Type Culture Collection (ATCC) and maintained in RPMI supplemented with 10% fetal calf serum (FCS), 2 mM L-glutamine, 100 units/mL penicillin and 100 μg/mL streptomycin in a humidified 37° C. incubator. RAW264.7 cells were plated in 24-well dishes at 10^6 cells/well in the above medium and incubated at 37° C. in 5% CO2 overnight. RPMI was aspirated from cells grown overnight and replaced with fresh medium. […] Peptides were added simultaneously with LTA. After 24 hours incubation, the supernatants were removed and tested for TNF-α production by enzyme linked immunosorbent assay (ELISA; Euroclone Life Sciences, Milan, Italy) according to the manufacturer's specification. All samples were run in duplicate. The detection limit for TNF-α was <0.025 ng/mL.

RAW264.7 cells [2] = experiment: LTA-stimulated NO production by RAW264.7 cells (Griess reagent); type: cell-based, murine; conditions: 20 μg/mL inactive RIP peptide analogue; data not shown
Procedure: as §3
Nitric oxide (NO) detection: RAW264.7 cells were cultured as described above. The amount of LTA-stimulated production of NO in the supernatant over 24 hours was estimated from the accumulation of the stable NO metabolite nitrite with Griess reagent (Molecular Probes, Eugene, Oreg.) according to the manufacturer's instructions.

[3] = Toxicity in supplementary treated groups without challenge; type: in vivo, BALB/c male mice; conditions: supplementary treated groups without previous infection
IL-6 plasma levels = experiment: Murine sepsis model 2, heat-killed S. aureus challenge, plasma IL-6; type: in vivo, BALB/c male mice
Procedure: (§4) Heat-killed S. aureus were prepared by boiling for 10 min and sonicating a bacterial suspension for 1 min in phosphate buffered saline containing approximately 2.5×10^9 cells/mL.
as §1, §2
(§5) Plasma TNF-α and IL-6 levels. […] TNF-α levels were measured with a solid phase sandwich enzyme-linked immunosorbent assay (ELISA). The intensity of the color was measured in a MR 700 Microplate Reader (Dynatech Laboratories, Guernsey, United Kingdom) by reading the absorbance at 450 nm. […] The plasma concentrations of IL-6 were also determined by ELISA, as described above. Quantification was performed on the basis of a standard curve. […]

TNF-α plasma levels = experiment: Murine sepsis model 2, heat-killed S. aureus challenge, plasma TNF-α; type: in vivo, BALB/c male mice
Procedure: as §4, §1, §2, §5

[4] = model 1a: i.v. treatment immediately after challenge
[5] = model 1a: treatment immediately after challenge
[6] = model 1b: i.v. treatment 6 h (360 min) after challenge
[7] = model 1b: treatment 6 h after challenge

| Molecule | Lethality (%) (S. aureus ATCC 25923; [4]) | Quantitative Blood Culture (CFU/ml), mean ± S.D. (S. aureus ATCC 25923; [5]) | Lethality (%) (S. aureus ATCC 25923; [6]) | Quantitative Blood Culture (CFU/ml), mean ± S.D. (S. aureus ATCC 25923; [7]) | changes in physiological parameters [3] | drug-related adverse effects [3] | other results |
| --- | --- | --- | --- | --- | --- | --- | --- |
| C[C@@H](O)[C@H]1C(=O)N2C(C(=O)O)=C(SCCN=CN)C[C@H]12 [imipenem] | 30% | 5.8 ± 1.4 × 10^2de CFU/ml | 35% | 7.1 ± 1.7 × 10^2de CFU/ml | – | – | – |
| YKPETNF-NH2 [inactive RIP peptide analogue] | – | – | – | – | – | – | decrease of LTA-induced TNF-α (RAW264.7 cells [1]): did not demonstrate decrease; decrease of LTA-stimulated NO (RAW264.7 cells [2]): did not demonstrate decrease |
| YSPWTNF-NH2 [RIP, YSPWTNF-NH2] | – | – | – | – | no changes in physiological parameters | none of the animals had clinical evidence of drug-related adverse effects | – |
| GGLRSLGRKILRAWKKYGPIIVPIIRI-NH2 [BMAP-28] | – | – | – | – | no changes in physiological parameters | none of the animals had clinical evidence of drug-related adverse effects | – |
| CN[C@H](CC(C)C)C(=O)N[C@H]1C(=O)N[C@@H](CC(N)=O)C(=O)N[C@H]2C(=O)N[C@H]3C(=O)N[C@H](C(=O)N[C@H](C(=O)O)c4cc(O)cc(O)c4-c4cc3ccc4O)[C@H](O)c3ccc(c(Cl)c3)Oc3cc2cc(c3O[C@@H]2O[C@H](CO)[C@@H](O)[C@H](O)[C@H]2O[C@H]2C[C@](C)(N)[C@H](O)[C@H](C)O2)Oc2ccc(cc2Cl)[C@H]1O [vancomycin] | 20% | 7.8±1.8×10^1 CFU/ml | 20% | 9.0 ± 2.8 × 10^1deg CFU/ml | – | – | IL-6 plasma levels (IL-6 plasma levels; model 2a: drugs at 0 min after heat-killed cell challenge, FIG. 4A): No substantial differences; plasma IL-6 concentrations (IL-6 plasma levels; model 2b: drugs 360 min after heat-killed bacterial challenge, FIG. 4B): constant increase; Lethality (dead/total) (S. aureus ATCC 25923; [4]): 4/20; Qualitative Blood Culture (positive/total) (S. aureus ATCC 25923; [5]): 5/20^df; Quantitative Blood Culture (CFU/ml), mean ± S.D. (S. aureus ATCC 25923; model 1a: treatment immediately after challenge, listed as VAN): 7.8 ± 1.8 × 10^1deg CFU/ml; Lethality (dead/total) (S. aureus ATCC 25923; [6]): 4/20; Qualitative Blood Culture (positive/total) (S. aureus ATCC 25923; [7]): 5/20^df; TNF-α plasma levels (TNF-α plasma levels; model 2a: drugs at 0 min after heat-killed cell challenge, FIG. 3A): No substantial differences; plasma TNF-α concentrations (TNF-α plasma levels; model 2b: drugs 360 min after heat-killed bacterial challenge, FIG. 3B): constant increase |
